{"source": "patent US12589103B2", "about": "“Antimicrobial and antiviral effects of C2-C7 alkyl boronic acids” (CORNELL UNIVERSITY, priority 2019, dated 2026)", "key": {"[1]": {"system": "Gram Positive aerobes and probiotic species (Lactobacillus, Bifidobacteria)", "test": "Bacterial growth panel, impact on non-target species (selectivity)", "type": "cell-based", "conditions": "for selectivity against Probiotic spp: compared with BA"}, "Henle-407 cells": {"system": "Henle-407 cells", "conditions": "higher concentrations"}, "[2]": {"system": "Feline Infectious Peritonitis Virus (FIPV) Black (TN-406)", "test": "FIPV replication and syncytium formation, immunofluorescence", "type": "cell-based, Feline Coronavirus type I", "conditions": "10, 20, 30, 40 mM; Feline Lung cells, 18 h post-infection"}, "Listeria monocytogenes": {"system": "Listeria monocytogenes", "test": "Bacterial growth panel, Listeria", "type": "cell-based", "protocol": "(§1) The control sample contained 40 mM NaCl.\nGrowth of bacteria with or without addition of C2-C8 C10, and C12 alkyl boronic acids, BA, or FMPBA was monitored by readings at OD600. […] The area under the curve (“AUC”) of the growth curve was calculated and the results were expressed as AUC+test compound:AUC−test compound."}, "Feline Lung cells": {"system": "Feline Lung cells", "test": "Cytotoxicity in FIPV infected Feline Lung cells"}, "[3]": {"system": "enteric pathogens (E. coli, Salmonella, Listeria monocytogenes, Klebsiella)", "test": "Bacterial growth panel, OD600 growth-curve AUC ratio (heat map)", "type": "cell-based", "conditions": "for antibacterial activity / potency against enteric pathogens (growth, AUC+test compound:AUC−test compound): 40 mM (BA, EBA, PBA), 20 mM (BBA), 10 mM (PeBA), 5 mM (HBA, SBA), 1 mM (OBA), 0.5 mM (DBA), 2 mM (DoDBA), 20 mM (FMPBA), 24-48 hrs; for selectivity for Gram Negative enteropathogens: growth panel"}, "[4]": {"system": "AIEC and cancer associated E. coli", "test": "Soft agar motility assay, E. coli", "type": "cell-based", "conditions": "10 h, AIEC NC101, 541-1, cancer associated E. coli", "protocol": "The ability of ABA C1-3 and BA to impact the motility of E. coli and Salmonella was evaluated using sloppy agar treated with and without BA and C1-C3 alkyl boronic acids. Motility is strongly linked to the virulence phenotype of these bacterial strains. E. coli was grown overnight at 37° C. in LB broth. Soft agar plates (1% tryptone, 0.5% NaCl, 0.25% agar) were prepared the day before the assay was carried out. Sterile NaCl (control), boric or boronic acid stock solution was added into the agar right before pouring the plates. The overnight cultures of E. coli were transferred (3 μl) on to the center of each plate, followed by incubation of the plates at 37° C. for 10 h. E. coli motility was quantified by measuring the diameter of the circular swarming area formed by the growing motile bacteria."}, "[5]": {"test": "8-week toxicity study in mice, drinking water", "type": "in vivo, C57/B18 mice", "conditions": "mouse, in vivo", "protocol": "The toxicity of boric and ethylboronic acids were examined with C57/B18 mice. At concentrations of 0, 10, 20, and 40 mM, the two chemicals were given to each group (6 mice) in drinking water. The body weight of each mouse was recorded weekly for 8 weeks, and fecal samples were also collected weekly for 16s sequencing. All animals were sacrificed at the end of 8th week. The length of whole intestine and ileum of each mouse was measured, and sections of the intestine (i. e. small intestine, ileum, cecum, and large intestine) were taken for histopathological and FISH analysis. Fecal samples were used for 16s and lipocalin analysis.\nFor lipocalin analysis, mouse fecal pellets were collected and frozen at −80 C during toxicity study. To determine lipocalin activity fecal pellets were diluted in microfuge tubes 1/30 with 0.1% Tween20/PBS and vortexed for 20 min at maximum speed. Undissolved particles were removed by centrifuging at 12,000 rpm for 10 min at 4 C. Supernatant was removed and placed into a clean microfuge tube. Lipocalin activity was determined using Mouse Lipocalin-2/NGAL DuoSet ELISA Kit (R&D Systems, DY1857) per manufacturer's instructions."}, "[6]": {"system": "AIEC in murine macrophage J774A.1 cells", "test": "Uptake and survival of AIEC in J774A.1 macrophages", "type": "cell-based, E. coli"}, "nF-κB": {"system": "nF-κB", "test": "E. coli induced nF-κB activation in HEK-Blue KD-TLR5 cells (SEAP reporter)", "type": "cell-based", "conditions": "m.o.i 20, SEAP at 24 h", "protocol": "HEK-Blue KD-TLR5 cells were used to detect the promotor activation of nF-κB by E. coli infection with or without boric or boronic acid treatment. nF-κB is the prototypical transcription factor for pro-inflammatory cytokines in epithelium. Briefly, cells were seeded in 96-well plates at a density of 5×10^4 cells per well. E. coli was diluted into fresh cell medium containing either NaCl (Control), boric or boronic acid at an m.o.i of 200 as 10× inocula, followed by addition of this inoculum (10 μl) into each well containing 100 μl of medium for a final m.o.i of 20. At 3 h post infection, the cell medium was carefully removed from each well, and replaced with 100 μl of fresh medium containing gentamycin (200 μg mL^−1). At 24 h post infection, the spent medium was collected, and centrifuged at 12,000 r.p.m. for 5 min to remove any particulate matter. QUANTI-Blue Kit (InvivoGen, San Diego, CA, USA) was used to detect the reporter protein SEAP (secreted alkaline phosphatase) following the manufacturer's instructions."}, "AIEC E. coli": {"system": "AIEC E. coli", "conditions": "complex media lacking ethanolamine or fucose"}, "[7]": {"system": "AIEC E. coli (541-1, LF82) virulence genes", "test": "Virulence gene expression of AIEC (qRT-PCR)", "type": "cell-based", "conditions": "30 mM", "protocol": "Total RNA was extracted using the Qiagen RNAProtect-RNeasy Kit per manufacturer's protocol. Total RNA was treated with TURBO DNA-Free Kit (Ambion), followed by a two-step qRT-PCR analysis, using Qiagen's QuantiTect Reverse Transcription Kit and QuantiNova SYBR Green PCR Kit. Each qPCR reaction contained 1 μl of cDNA, 0.7 μl of each forward and reverse primers (10 μM), 5 μL of 2× SYBR Green Master Mix, 1 μl of QN ROX Reference Dye and […] of nuclease-free water to make the total volume of 10 μl. The reaction was run with ABI7000 (Applied Biosystems). […] The relative change of a targeted gene expression was calculated by using the equation RQ=2^−ΔΔCT."}, "[8]": {"system": "diarrheagenic E. coli and APEC", "test": "Growth of diarrheagenic and APEC E. coli in LB media", "type": "cell-based", "conditions": "30 mM", "protocol": "as §1\nDiarrheagenic E. coli pathogroups differ by their preferential host colonization sites, virulence mechanisms, and clinical symptoms."}, "[9]": {"test": "DSS induced colitis in mice", "type": "in vivo, C57BL mice", "conditions": "40 mM in drinking water after DSS (3%)", "protocol": "On the basis of favorable in vivo toxicity tests, the ability of BA and EBA to reduce the severity of inflammation in murine models of microbially driven IBD was tested. The effect of BA and EBA (40 mM) on intestinal inflammation was evaluated in mice with dextran sodium sulfate (“DSS”) induced colitis. The DSS model has a complex etiopathogenesis that involves host-immune and inflammatory responses and the enteric microbiome BA To test their protecting ability to the gastrointestinal tract, boric and ethylboronic acid were given to C57BL mice at 40 mM concentration respectively in drinking water after DSS (3%) treatment. Body weight and fecal samples were taken before and after 6-day treatment. At the 6th day, all mice were euthanized for gross necropsy and histopathology. Intestinal sections were collected and embedded for pathological and FISH analysis. Fecal samples were used for 16s and lipocalin analysis."}, "FIPV": {"system": "FIPV", "conditions": "known drugs; cited from earlier work"}, "[10]": {"system": "probiotic Lactobacillus spp", "test": "Growth of probiotic Lactobacillus strains", "conditions": "three Lactobacillus strains"}}, "note": "“Also recorded” adds a separate entry of the source.", "data": [{"smiles": "CCCCCCB(O)O", "note": "[HBA, hexyl boronic acid]", "values": [{"measurement": "selectivity against Probiotic spp", "setting": "[1]", "value": "more selective than BA"}, {"measurement": "cytotoxicity in Henle cells", "setting": "Henle-407 cells", "value": "cytotoxic at higher concentrations"}, {"measurement": "replication and syncytium formation of FIPV", "setting": "[2]", "value": "inhibited replication and syncytium formation of FIPV in infected cells; also recorded: antiviral activity was observed at lower doses without cytotoxicity"}, {"measurement": "selectivity of activity against Listeria monocytogenes", "setting": "Listeria monocytogenes", "value": "selectivity apparent"}, {"measurement": "cytotoxicity in antiviral assay", "setting": "Feline Lung cells", "value": "Cytotoxicity was observed"}, {"measurement": "antibacterial activity / potency against enteric pathogens (growth, AUC+test compound:AUC−test compound)", "setting": "[3]", "value": "high potency vs enteropathogens while somewhat sparing probiotic species"}, {"measurement": "selectivity for Gram Negative enteropathogens", "setting": "[3]", "value": "highest"}]}, {"smiles": "OB(O)O", "note": "[BA, Boric acid, reference compound]", "values": [{"measurement": "motility of E. coli", "setting": "[4]", "value": "had less impact"}, {"measurement": "replication and syncytium formation of FIPV", "setting": "[2]", "value": "able to inhibit replication and syncytium formation"}, {"measurement": "fecal 16S profiles", "setting": "[5]", "value": "not significantly different from control mice"}, {"measurement": "survival of AIEC in J774A.1 macrophages", "setting": "[6]; 30 mM during infection, 24 h post infection", "value": "inhibited the survival"}, {"measurement": "uptake of AIEC by J774A.1 macrophages", "setting": "[6]; 30 mM, 1 h", "value": "inhibited the uptake"}, {"measurement": "induction of nF-κB by E. coli", "setting": "nF-κB", "value": "reduced the induction of nF-κB by E. coli"}, {"measurement": "suppression of AIEC growth in complex media", "setting": "AIEC E. coli", "value": "effective in suppressing AIEC growth"}, {"measurement": "pduC expression in 541-1", "setting": "[7]", "value": "Upregulation"}, {"measurement": "pduC expression in LF-82", "setting": "[7]", "value": "Upregulation"}, {"measurement": "inhibition of growth of diarrheagenic and APEC E. coli", "setting": "[8]", "value": "have activity versus the diarrheagenic E. coli and APEC that varies by pathogroup"}, {"measurement": "colon length in DSS colitis versus control mice", "setting": "[9]", "value": "significantly different"}, {"measurement": "fecal lipocalin levels in DSS colitis versus control mice", "setting": "[9]", "value": "significantly different"}, {"measurement": "intestinal bleeding in DSS colitis", "setting": "[9]", "value": "observed"}, {"measurement": "body weight in DSS colitis", "setting": "[9]; 6-day treatment", "value": "reduced"}]}, {"smiles": "CCCCCCCCCCB(O)O", "note": "[DBA, decyl boronic acid, reference compound]", "values": [{"measurement": "antibacterial activity / potency against enteric pathogens (growth, AUC+test compound:AUC−test compound)", "setting": "[3]", "value": "marked decrease in antibacterial activity"}, {"measurement": "antibacterial activity / potency against enteric pathogens (growth, AUC+test compound:AUC−test compound)", "setting": "[3]; listed as C10", "value": "much less potency than C2-C7 alkyl boronic acids"}]}, {"smiles": "CCCCCCCCB(O)O", "note": "[OBA, octyl boronic acid, reference compound]", "values": [{"measurement": "antibacterial activity / potency against enteric pathogens (growth, AUC+test compound:AUC−test compound)", "setting": "[3]", "value": "marked decrease in antibacterial activity"}, {"measurement": "antibacterial activity / potency against enteric pathogens (growth, AUC+test compound:AUC−test compound)", "setting": "[3]; listed as ABA C8", "value": "much less potency than C2-C7 alkyl boronic acids"}]}, {"smiles": "N#C[C@@]1(c2ccc3c(N)ncnn23)O[C@H](CO)[C@@H](O)[C@H]1O", "note": "[GS-441524]", "values": [{"measurement": "efficacy against FIPV", "setting": "FIPV", "value": "some efficacy against FIPV"}]}, {"smiles": "CCCCCCCB(O)O", "note": "[SBA, heptyl boronic acid]", "values": [{"measurement": "selectivity for Gram Negative enteropathogens", "setting": "[3]", "value": "highest"}]}, {"smiles": "CB(O)O", "note": "[MBA, methyl boronic acid, reference compound]", "values": [{"measurement": "motility of E. coli", "setting": "[4]", "value": "had less impact"}, {"measurement": "growth of probiotic Lactobacillus spp", "setting": "[10]", "value": "do not suppress growth"}]}, {"smiles": "CCCCCB(O)O", "note": "[PeBA, pentyl boronic acid]", "values": [{"measurement": "cytotoxicity in Henle cells", "setting": "Henle-407 cells", "value": "cytotoxic at higher concentrations"}]}, {"smiles": "Cc1ccc(B(O)O)c(F)c1", "note": "[FMPBA, 2-fluro-4-methlyphenylboronic acid, reference compound]", "values": [{"measurement": "selectivity: impact on Gram Positive aerobes and probiotic species", "setting": "[1]; same concentrations as growth panel", "value": "not selective and killed more Gram Positive aerobes and probiotic species than C2-C7 alkyl boronic acid compounds; also recorded: minimally selective"}, {"measurement": "antibacterial activity / potency against enteric pathogens (growth, AUC+test compound:AUC−test compound)", "setting": "[3]", "value": "more generalized and potent antibacterial activity than C2-C7 alkyl boronic acid compounds; also recorded: bacteriocidal"}]}, {"smiles": "CCCCB(O)O", "note": "[BBA, butyl boronic acid]", "values": [{"measurement": "selectivity against Probiotic spp", "setting": "[1]", "value": "more selective than BA"}, {"measurement": "replication and syncytium formation of FIPV", "setting": "[2]", "value": "inhibited replication and syncytium formation of FIPV in infected cells; also recorded: antiviral activity was observed at lower doses without cytotoxicity"}, {"measurement": "selectivity of activity against Listeria monocytogenes", "setting": "Listeria monocytogenes", "value": "selectivity apparent"}, {"measurement": "cytotoxicity in antiviral assay", "setting": "Feline Lung cells", "value": "Cytotoxicity was observed"}, {"measurement": "antibacterial activity / potency against enteric pathogens (growth, AUC+test compound:AUC−test compound)", "setting": "[3]", "value": "high potency vs enteropathogens while somewhat sparing probiotic species"}, {"measurement": "selectivity for Gram Negative enteropathogens", "setting": "[3]", "value": "highest"}]}]}
